Where a name gives a salt, the structure may show the parent alone.
Key:
Format in all cases: in vivo, Lewis rats
[1] = system: Experimental Autoimmune Neuritis; assay: EAN clinical score, suppressive treatment; settings: EAN rats, 1 mg/kg intragastrically once daily from immunization until Day 22; scale 0-10; control maximal 4.80±0.51 at Day 13
Procedure: (§1) Male Lewis rats (8-10 weeks, 180-200 g, Elevage-Janvier, France) were housed under a 12 h light-12 h dark cycle and with free access to food and water. All animal procedures were in accordance with a protocol approved by the local Administration District Official Committee. All efforts were made to minimize the number of animals and their suffering.
(§2) For EAN induction, rats were immunized by subcutaneous injection into both hind footpads with 100 μL of an inoculum containing 100 μg of synthetic neuritogenic P2 57-81 peptide (GeneScript Corporation, Scotch Plains, N.J., USA). The peptide was dissolved in phosphate buffered saline (PBS) (2 mg/mL) and then emulsified with an equal volume of complete Freund's adjuvant (CFA) containing 2 mg/mL mycobacterium tuberculosis to get a final concentration of 1 mg/mL.
EAN clinical scores were evaluated every day as follows: 0=normal, 1=reduced tonus of tail, 2=limp tail, impaired righting, 3=absent righting, 4=gait ataxia, 5=mild paresis of the hind limbs, 6=moderate paraparesis, 7=severe paraparesis or paraplegia of the hind limbs, 8=tetraparesis, 9=moribund, and 10=death (Zhang et al., 2009A).
Compound A was tested at a concentration of 1 mg/kg (suspended in a water vehicle). The compound A suspension was intragastrically administrated immediately after induction and then once daily until Day 22 (5 rats per group). […]

[2] = system: Experimental Autoimmune Neuritis; assay: Body weight course in EAN rats; settings: 1 mg/kg once daily, control showed significant weight loss Day 10 to 18
Procedure: as §1, §2
Compound A was tested at a concentration of 1 mg/kg (suspended in a water vehicle). The compound A suspension was intragastrically administrated immediately after induction and then once daily until Day 22 (5 rats per group). For control EAN rats, the same volume of 1% CMC in water was given.

[3] = system: Experimental Autoimmune Neuritis; assay: Immunohistochemistry of inflammatory cell infiltration in EAN sciatic nerves; settings: EAN rats, Day 16, 1 mg/kg, sciatic nerve cross-sections, n=5
[4] = system: Experimental Autoimmune Neuritis; assay: Luxol Fast Blue staining, semiquantitative histological score of EAN sciatic nerves; settings: EAN rats, Day 16, 1 mg/kg in water vehicle, LFB staining of sciatic nerves, scale 0-3
Procedure: as §1
For EAN induction, rats were immunized by subcutaneous injection into both hind footpads with 100 μL of an inoculum containing 100 μg of synthetic neuritogenic P2 57-81 peptide (GeneScript Corporation, Scotch Plains, N.J., USA). […]
The routine Luxol Fast Blue (LFB) staining was applied to show myelin. […] Briefly, four cross-sections from root and middle level of both sides of EAN rats were analyzed. All perivascular areas present in cross-sections were evaluated by two observers unaware of the treatment, and the degree of pathological alteration was graded semiquantitatively on the following scale: 0=normal perivascular area; 1=mild cellular infiltrate adjacent to the vessel; 2=cellular infiltration plus demyelination in immediate proximity to the vessel; and 3=cellular infiltration and demyelination throughout the section. […]

CCC(N)(CO)CCc1ccc(Sc2cccc(OCc3ccccc3)c2)cc1Cl (stereo not drawn) [Compound A, 2-amino-4-[4-(3-benzyloxyphenylthio)-2-chlorophenyl]-2-ethylbutane-1-ol hydrochloride]
mean neurological score [1]: < 0.1
weight loss [2]: a reduced level of weight loss was observed from Day 13 to 15
Area of immunoreactivity/area of sciatic nerves (%) for B cells (OX22+) [3]: <0.01%
Area of immunoreactivity/area of sciatic nerves (%) for Macrophages (ED1+) [3]: <0.05%
Area of immunoreactivity/area of sciatic nerves (%) for T cells (W3/13+) [3]: <0.01%
Mean Histological Score [4]: 0.10

Source: patent US20110190398A1, “USE OF IMMUNOS[…] IN A NEW INDICATION” (NOVARTIS AG, priority 2008, published 2011)
